Legend:
Assay type in all cases: cell-based
SNB-75 (CNS cancer) = test: NCI-60 SRB cytotoxicity screen; settings: Homo sapiens, SNB-75, SNB-75, single dose 10 μM; read-out: growth inhibition (GI%)
MALME-3M (melanoma) = test: NCI-60 SRB cytotoxicity screen; settings: Homo sapiens, single dose 10 μM, read-out: growth inhibition (GI%)
[1] = system: EKVX (non-small cell lung cancer); test: NCI-60 SRB cytotoxicity screen; settings: Homo sapiens, single dose 10 μM, read-out: growth inhibition (GI%)
[2] = system: A549/ATCC (non-small cell lung cancer); test: NCI-60 SRB cytotoxicity screen; settings: Homo sapiens, single dose 10 μM, read-out: growth inhibition (GI%)
U251 (CNS cancer) = test: NCI-60 SRB cytotoxicity screen; settings: Homo sapiens, U-251; U251, single dose 10 μM; read-out: growth inhibition (GI%)
SK-OV-3 (ovarian cancer) = test: NCI-60 SRB cytotoxicity screen; settings: Homo sapiens; SK-OV-3, single dose 10 μM; read-out: growth inhibition (GI%)
ACHN (renal cancer) = test: NCI-60 SRB cytotoxicity screen; settings: Homo sapiens, single dose 10 μM, read-out: growth inhibition (GI%)
HCT-116 (colon cancer) = test: NCI-60 SRB cytotoxicity screen; settings: Homo sapiens; HCT-116, single dose 10 μM; read-out: growth inhibition (GI%)
RXF 393 (renal cancer) = test: NCI-60 SRB cytotoxicity screen; settings: Homo sapiens; RXF 393, single dose 10 μM; read-out: growth inhibition (GI%)
K-562 (leukemia) = test: NCI-60 SRB cytotoxicity screen; settings: Homo sapiens; K-652 [sic], single dose 10 μM; read-out: growth inhibition (GI%)
OVCAR-5 (ovarian cancer) = test: NCI-60 SRB cytotoxicity screen; settings: Homo sapiens; OVCAR-5, single dose 10 μM; read-out: growth inhibition (GI%)
TK-10 (renal cancer) = test: NCI-60 SRB cytotoxicity screen; settings: Homo sapiens; TK-10, single dose 10 μM; read-out: growth inhibition (GI%)
SK-MEL-2 (melanoma) = test: NCI-60 SRB cytotoxicity screen; settings: Homo sapiens; SK-MEL-2, single dose 10 μM; read-out: growth inhibition (GI%)
SW-620 (colon cancer) = test: NCI-60 SRB cytotoxicity screen; settings: Homo sapiens; SW-620, single dose 10 μM; read-out: growth inhibition (GI%)
PC-3 (prostate cancer) = test: NCI-60 SRB cytotoxicity screen; settings: PC-3, single dose 10 μM; read-out: growth inhibition (GI%)
CAKI-1 (renal cancer) = test: NCI-60 SRB cytotoxicity screen; settings: Homo sapiens; CAKI-1, single dose 10 μM; read-out: growth inhibition (GI%)
[3] = system: NCI/ADR-RES (ovarian cancer); test: NCI-60 SRB cytotoxicity screen; settings: Homo sapiens, single dose 10 μM, read-out: growth inhibition (GI%)
SF-539 (CNS cancer) = test: NCI-60 SRB cytotoxicity screen; settings: Homo sapiens; SF-539, single dose 10 μM; read-out: growth inhibition (GI%)
COLO 205 (colon cancer) = test: NCI-60 SRB cytotoxicity screen; settings: Homo sapiens; COLO 205, single dose 10 μM; read-out: growth inhibition (GI%)
SK-MEL-28 (melanoma) = test: NCI-60 SRB cytotoxicity screen; settings: Homo sapiens; SK-MEL-28, single dose 10 μM; read-out: growth inhibition (GI%)
SNB-19 (CNS cancer) = test: NCI-60 SRB cytotoxicity screen; settings: Homo sapiens; SNB-19, single dose 10 μM; read-out: growth inhibition (GI%)
SF-268 (CNS cancer) = test: NCI-60 SRB cytotoxicity screen; settings: Homo sapiens; SF-268, single dose 10 μM; read-out: growth inhibition (GI%)
[4] = system: NCI-H522 (non-small cell lung cancer); test: NCI-60 SRB cytotoxicity screen; settings: Homo sapiens; NCI-H522, single dose 10 μM; read-out: growth inhibition (GI%)
BT-549 (breast cancer) = test: NCI-60 SRB cytotoxicity screen; settings: Homo sapiens; BT-549, single dose 10 μM; read-out: growth inhibition (GI%)
HCT-15 (colon cancer) = test: NCI-60 SRB cytotoxicity screen; settings: Homo sapiens; HCT-15, single dose 10 μM; read-out: growth inhibition (GI%)
HL-60(TB) (leukemia) = test: NCI-60 SRB cytotoxicity screen; settings: Homo sapiens, single dose 10 μM, read-out: growth inhibition (GI%)
[5] = system: 60 cancer cell lines (NCI); test: NCI-60 single-dose screen, overall verdict over the panel; settings: single dose 10 μM, whole panel
Experimental: The cytotoxic activity of the synthesized quinoline derivatives was determined by the national cancer institute (NCI, Bethesda, Maryland, USA) against 60 different cancer cell lines at a single high dose (10^−5 M) in the full NCI 60 cell panel using the sulforhodamine B assay for cell viability evaluation. In summary, 5 × 10^3 cells were in 96-well plate and incubated in complete media for 24 h. Cells were treated with 100 μL of media containing each newly synthesized compound. After drug exposure, cells were fixed by replacing media with 150 μL of 10% TCA and incubated at 4 °C for 1 h. The TCA solution was removed, and the cells were washed 5 times with distilled water. Aliquots of 70 μL SRB solution (0.4% w/v) were added and incubated in a dark place at room temperature for 10 min. The plates were washed 3 times with 1% acetic acid and allowed to air-dry overnight. Then, 150 μL of TRIS (10 mM) was added to dissolve protein-bound SRB stain. The absorbance was measured at 540 nm.% Cytotoxicity = [1 − (AVx/AVNC)] × 100where AVx denotes the average absorbance of the sample well and AVNC denotes the average absorbance of the negative control.

UACC-62 (melanoma) = test: NCI-60 SRB cytotoxicity screen; settings: Homo sapiens; UACC-62, single dose 10 μM; read-out: growth inhibition (GI%)
786-0 (renal cancer) = test: NCI-60 SRB cytotoxicity screen; settings: Homo sapiens; 786-0, single dose 10 μM; read-out: growth inhibition (GI%)
MCF7 (breast cancer) = test: NCI-60 SRB cytotoxicity screen; settings: Homo sapiens; MCF7, single dose 10 μM; read-out: growth inhibition (GI%)
[6] = system: NCI-H322M (non-small cell lung cancer); test: NCI-60 SRB cytotoxicity screen; settings: Homo sapiens, single dose 10 μM, read-out: growth inhibition (GI%)
MOLT-4 (leukemia) = test: NCI-60 SRB cytotoxicity screen; settings: Homo sapiens; MOLT-4, single dose 10 μM; read-out: growth inhibition (GI%)
[7] = system: NCI-H23 (non-small cell lung cancer); test: NCI-60 SRB cytotoxicity screen; settings: Homo sapiens; NCI-H23, single dose 10 μM; read-out: growth inhibition (GI%)
HCC-2998 (colon cancer) = test: NCI-60 SRB cytotoxicity screen; settings: Homo sapiens; HCC-2998, single dose 10 μM; read-out: growth inhibition (GI%)
OVCAR-3 (ovarian cancer) = test: NCI-60 SRB cytotoxicity screen; settings: Homo sapiens; OVCAR-3, single dose 10 μM; read-out: growth inhibition (GI%)

SMILES	inhibition at 10 µM (SNB-75 (CNS cancer))	inhibition at 10 µM (MALME-3M (melanoma))	inhibition at 10 µM [1]	inhibition at 10 µM [2]	inhibition at 10 µM (U251 (CNS cancer))	inhibition at 10 µM (SK-OV-3 (ovarian cancer))	inhibition at 10 µM (ACHN (renal cancer))	inhibition at 10 µM (HCT-116 (colon cancer))	inhibition at 10 µM (RXF 393 (renal cancer))	inhibition at 10 µM (K-562 (leukemia))	inhibition at 10 µM (OVCAR-5 (ovarian cancer))	inhibition at 10 µM (TK-10 (renal cancer))	inhibition at 10 µM (SK-MEL-2 (melanoma))	inhibition at 10 µM (SW-620 (colon cancer))	inhibition at 10 µM (PC-3 (prostate cancer))	inhibition at 10 µM (CAKI-1 (renal cancer))	inhibition at 10 µM [3]	inhibition at 10 µM (SF-539 (CNS cancer))	inhibition at 10 µM (COLO 205 (colon cancer))	inhibition at 10 µM (SK-MEL-28 (melanoma))	also measured
CCc1cccc2cc(-c3cc(-c4ccc(F)cc4)[nH]c(=S)c3C#N)c(Cl)nc12 [Compound 5d, 4-(2-Chloro-8-ethylquinolin-3-yl)-6-(4-fluorophenyl)-2-thioxo-1,2-dihydropyridine-3-carbonitrile]	39.1%	< 10%	19.6%	< 10%	< 10%	20.9%	< 10%	< 10%	< 10%	29.3%	< 10%	< 10%	< 10%	< 10%	4.57%	31.1%	< 10%	< 10%	< 10%	< 10%	inhibition at 10 µM (SNB-19 (CNS cancer)): 10.5%; inhibition at 10 µM (SF-268 (CNS cancer)): 21%; inhibition at 10 µM [4]: 11.8%; inhibition at 10 µM (BT-549 (breast cancer)): 12.2%; inhibition at 10 µM (HCT-15 (colon cancer)): 14.8%; inhibition at 10 µM (HL-60(TB) (leukemia)): < 10%; cytotoxic activity over the cell lines (in words) [5]: slight cytotoxic activity; inhibition at 10 µM (UACC-62 (melanoma)): 25.7%; inhibition at 10 µM (786-0 (renal cancer)): < 10%; inhibition at 10 µM (MCF7 (breast cancer)): 40.4%; inhibition at 10 µM [6]: 12.4%; inhibition at 10 µM (MOLT-4 (leukemia)): 26.8%; inhibition at 10 µM [7]: 16.4%; inhibition at 10 µM (HCC-2998 (colon cancer)): < 10%
CCc1cccc2cc(C=CC(=O)c3cc(OC)c(OC)c(OC)c3)c(Cl)nc12 [Compound 3c, 3-(2-Chloro-8-ethylquinolin-3-yl)-1-(3,4,5-trimethoxyphenyl)prop-2-en-1-one]	61.7%	14.8%	17.1%	52.1%	78.2%	17.4%	32%	61.6%	42.6%	68.1%	26.8%	< 10%	44.5%	65.4%	53.5%	38.7%	67.6%	> 100%	18.4%	15%	inhibition at 10 µM (OVCAR-3 (ovarian cancer)): > 100%; inhibition at 10 µM (SNB-19 (CNS cancer)): 66.4%; inhibition at 10 µM (SF-268 (CNS cancer)): 32.2%; inhibition at 10 µM [4]: 80.7%; inhibition at 10 µM (BT-549 (breast cancer)): 76.1%; inhibition at 10 µM (HCT-15 (colon cancer)): 44.5%; inhibition at 10 µM (HL-60(TB) (leukemia)): 73.5%; inhibition at 10 µM (UACC-62 (melanoma)): 41.9%; inhibition at 10 µM (786-0 (renal cancer)): 41.7%; inhibition at 10 µM (MCF7 (breast cancer)): 70.9%; inhibition at 10 µM [6]: 31.1%; inhibition at 10 µM (MOLT-4 (leukemia)): 49.9%; inhibition at 10 µM [7]: 27.4%; inhibition at 10 µM (HCC-2998 (colon cancer)): 63.8%
CCc1cccc2cc(-c3cc(-c4cc(OC)c(OC)c(OC)c4)[nH]c(=S)c3C#N)c(Cl)nc12 [Compound 5c, 4-(2-Chloro-8-ethylquinolin-3-yl)-2-thioxo-6-(3,4,5-trimethoxyphenyl)-1,2-dihydropyridine-3-carbonitrile]	< 10%	< 10%	34.9%	38.1%	31%	< 10%	32.5%	27.1%	37.3%	33.9%	< 10%	< 10%	33%	10%	48.9%	69.8%	28.5%	29.7%	12.7%	< 10%	inhibition at 10 µM (OVCAR-3 (ovarian cancer)): 16.9%; inhibition at 10 µM (SNB-19 (CNS cancer)): 39.1%; inhibition at 10 µM (SF-268 (CNS cancer)): 31.7%; inhibition at 10 µM [4]: 65.7%; inhibition at 10 µM (BT-549 (breast cancer)): 21.1%; inhibition at 10 µM (HCT-15 (colon cancer)): 29%; inhibition at 10 µM (HL-60(TB) (leukemia)): 51.8%; inhibition at 10 µM (UACC-62 (melanoma)): 33.5%; inhibition at 10 µM (786-0 (renal cancer)): 27.9%; inhibition at 10 µM (MCF7 (breast cancer)): 46.5%; inhibition at 10 µM [6]: 34%; inhibition at 10 µM (MOLT-4 (leukemia)): 61.2%; inhibition at 10 µM [7]: 33.7%; inhibition at 10 µM (HCC-2998 (colon cancer)): 33%

Source: article PMC11240139, “Exploring the antitumor potential of novel quinoline derivatives via tubulin polymerization inhibition in breast cancer; design, synthesis and molecular docking” (RSC Advances, 2024)
